Measured values published in patent US20210380548A1, “Fused [1,2,4]Thiadiazine Derivatives Which Act as KAT Inhibitors of the MYST Family” (CTxT Pty Limited, priority 2017, published 2021).

Assays:
TIP60-KAT5 [1] = biological target: T1, TIP60-KAT5 (Homo sapiens, UniProt Q92993); experiment: Acetyltransferase biochemical assay (AlphaScreen), KAT5; conditions: Table 1 (TIP60-KAT5); 0.4 μM Acetyl coenzyme A, histone H4, 10 nM enzyme
T1 construct: encoding amino acid residues 2 to 461 (Uniprot Q92993-2) of human KAT5 isoform; made in house; host or cells: E. coli BL21 DE3

HBO-KAT7 [2] = biological target: T2, HBO-KAT7 (Homo sapiens, UniProt O95251); experiment: Acetyltransferase biochemical assay (AlphaScreen), KAT7; conditions: Table 3 (HBO-KAT7); 0.4 μM Acetyl coenzyme A, histone H3.1, 40 nM enzyme
T2 construct: encoding amino acid residues 325 to 611 (Uniprot 095251-1) of human KAT7; made in house; host or cells: E. coli BL21 DE3 RIL

MOF-KAT8 [3] = biological target: T3, MOF-KAT8 (Homo sapiens, UniProt Q9H7Z6); experiment: Revised Acetyltransferase Biochemical Assay, KAT8
T3 sequence (Q9H7Z6 177-447): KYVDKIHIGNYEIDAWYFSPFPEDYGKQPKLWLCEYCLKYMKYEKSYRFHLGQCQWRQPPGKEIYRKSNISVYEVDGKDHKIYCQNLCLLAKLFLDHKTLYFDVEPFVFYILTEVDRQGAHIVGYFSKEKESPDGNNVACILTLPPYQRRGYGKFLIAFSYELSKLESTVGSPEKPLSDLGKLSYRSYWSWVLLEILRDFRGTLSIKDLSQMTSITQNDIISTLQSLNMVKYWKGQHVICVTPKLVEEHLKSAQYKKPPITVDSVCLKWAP

HBO-KAT7 [4] = biological target: T2, HBO-KAT7; experiment: Revised Acetyltransferase Biochemical Assay, KAT7; conditions: Table 9 (HBO-KAT7), 1 μM Acetyl coenzyme A
MOZ-KAT6A = biological target: T4, MOZ-KAT6A (Homo sapiens, UniProt Q92794, A567V); experiment: Revised Acetyltransferase Biochemical Assay, KAT6A; conditions: Table 8 (MOZ-KAT6A), 1 μM Acetyl coenzyme A
T4 construct: encoding amino acid residues 507 to 778 (Uniprot Q92794-1) of human KAT6A; made in house; host or cells: E. coli BL21 DE3

TIP60-KAT5 [5] = biological target: T1, TIP60-KAT5; experiment: Revised Acetyltransferase Biochemical Assay, KAT5; conditions: 10 nM KAT5, 1 μM AcCoA, 100 nM histone H4, 90 min
QKF-KAT6B = biological target: T5, QKF-KAT6B (Homo sapiens, UniProt Q8WYB5); experiment: Revised Acetyltransferase Biochemical Assay, KAT6B; conditions: 8 nM KAT6B, 1 μM AcCoA, 100 nM histone H3.1, 90 min
T5 construct: purchased SignalChem K315-381BG
Source text: KAT6B was obtained from SignalChem, catalog ID: K315-381BG

[6] = test system: histone H3K23 acetylation (KATE mediated) in U2OS cells; experiment: Histone H3 Lysine 23 Acetylation Biomarker Assay (U2OS); assay type: cell-based; conditions: Homo sapiens, 96 well, 24 hours incubation
Protocol: Compounds may be tested for their ability to inhibit acetylation of the histone H3K23 marker, which is KATE mediated, in the following assay:
The cell line U2OS was seeded at a density of 9,000 cells per well in 96 well optical quality tissue culture plates in RPMI medium and 10% foetal bovine serum, and allowed to adhere for 24 hours under standard culture conditions (37 degree Celsius, 5% CO2). At the end of this period the medium was aspirated. Compound dilutions prepared in DMSO were added to medium, with negative control wells reserved for treatment with DMSO only and 100% inhibition positive controls receiving a potent inhibitor compound (e.g. cas 2055397-28-7, benzoic acid, 3-fluoro-5-(2-pyridinyl)-, 2-[(2-fluorophenyl)sulfonyl]hydrazide) (Baell, J., Nguyen, H. N., Leaver, D. J., Cleary, B. L., Lagiakos, H. R., Sheikh, B. N., Thomas. T. J., Aryl sulfonohydrazides, WO2016198507A1, 2016) at 10 μM concentration and 200 μL transferred to the cells. After incubation for 24 hours, the cells were fixed with 3.7% formaldehyde in PBS for 20 minutes at room temperature, washed (5×5 minutes) with phosphate buffer saline containing 0.1% Tween 20 and blocked with Odyssey blocking buffer (LI-COR, Lincoln, Nebr.) containing 0.1% TritonX100. Anti-H3K23ac specific antibody (Abcam ab177275) in Odyssey blocking buffer containing 0.1% Tween 20 was added and incubated for 16 hours at 4 degree Celsius. After washing (as above), a secondary antibody labelled with Alexa647 dye (LifeTechnologies) and Hoechst 33342 (1 μg/mL, SigmaAldrich) were added for 1 hour incubation. Plates were washed as previously and read on a PerkinElmer Phenix high content imaging platform. Using a Columbus image analysis pipeline, individual nuclei were located by Hoechst 33342 stain and the acetylation level was calculated from the Alexa647-related intensity in the same area. The resulting mean intensity per cell was directly converted to percent inhibition relative to controls on the same plate and the data fitted against a four-parameter logistic model to determine the 50% inhibitory concentration (IC50).

[7] = test system: histone H3 Lysine 14 acetylation (HBO1 mediated) in U2OS cells; experiment: Histone H3 Lysine 14 Acetylation Biomarker Assay (384-well, U2OS); assay type: cell-based; conditions: Homo sapiens, serum free medium, 24 hours incubation
Protocol: Compounds may be tested for their ability to inhibit acetylation of the histone H3 Lysine 14 (which is HBO1 mediated) marker in the following assay:
The cell line U2OS was seeded at a density of 3,000 cells per well in 384-well optical quality tissue culture plates in RPMI medium supplemented with 10% foetal bovine serum and 10 mM Hepes. The cells were allowed to adhere for 24 hours under standard culture conditions (37 degree Celsius, 5% CO2). At the end of this period the cells were washed with serum free medium. Compound dilutions prepared in DMSO were added to the serum free medium, with negative control wells reserved for treatment with DMSO only and 100% inhibition positive controls receiving a potent inhibitor compound (e.g. (Z)-4-fluoro-N-((3-hydroxyphenyl)sulfonyl)-5-methyl-[1,1′-biphenyl]-3-carbohydrazonic acid) at 10 μM concentration. After incubation for 24 hours, the cells were fixed with 4% formaldehyde in PBS for 15 minutes at room temperature, washed with phosphate buffer saline and blocked with blocking buffer containing 0.2% TritonX100 and 2% BSA. Anti-H3K14ac specific antibody (Cell Signalling Technologies) in blocking buffer was added and incubated overnight at 4 degree Celsius. After washing, a secondary antibody labelled with AlexaFluor 488 dye (ThermoFisher) and Hoechst 33342 (1 μg/mL, Life Technologies) were added for 2 hours incubation at room temperature. Plates were washed and read on a
PerkinElmer Opera HCS high content imaging platform. Using a Columbus image analysis pipeline, individual nuclei were located by Hoechst 33342 stain and the acetylation level was calculated from the AlexaFluor 488-related intensity in the same area. The resulting mean intensity per cell was converted to percent inhibition relative to controls on the same plate and the data fitted against a four-parameter logistic model to determine the 50% inhibitory concentration (IC50).

MOF-KAT8 [8] = biological target: T3, MOF-KAT8; experiment: Acetyltransferase biochemical assay (AlphaScreen), KAT8; conditions: Table 4 (MOF-KAT8); 0.4 μM Acetyl coenzyme A, histone H4, 20 nM enzyme
[9] = test system: histone H2A.Z Lysine 7 acetylation (TIP60 mediated) in U2OS cells; experiment: H2A.Z Lysine 7 Acetylation Biomarker Assay (384-well, U2OS); assay type: cell-based; conditions: Homo sapiens, serum free medium, 24 hours incubation
Protocol: Compounds may be tested for their ability to inhibit the histone H2A.Z Lysine 7 acetylation marker (which is TIP60 mediated) in the following assay:
The cell line U2OS was seeded at a density of 3,000 cells per well in 384-well optical quality tissue culture plates in RPMI medium supplemented with 10% foetal bovine serum and 10 mM Hepes. The cells were allowed to adhere for 24 hours under standard culture conditions (37 degree Celsius, 5% CO2). At the end of this period the cells were washed with serum free medium. […] After incubation for 24 hours, the cells were fixed with 4% formaldehyde in PBS for 15 minutes at room temperature, washed with phosphate buffer saline and blocked with blocking buffer containing 0.2% TritonX100 and 2% BSA. Anti-H2A.ZK7ac specific antibody (Abcam) in blocking buffer was added and incubated overnight at 4 degree Celsius. After washing, a secondary antibody labelled with AlexaFluor 488 dye (ThermoFisher) and Hoechst 33342 (1 μg/mL, Life Technologies) were added for 2 hours incubation at room temperature. Plates were washed and read on a PerkinElmer Opera HCS high content imaging platform. Using a Columbus image analysis pipeline, individual nuclei were located by Hoechst 33342 stain and the acetylation level was calculated from the AlexaFluor 488-related intensity in the same area. The resulting mean intensity per cell was converted to percent inhibition relative to controls on the same plate and the data fitted against a four-parameter logistic model to determine the 50% inhibitory concentration (IC50).

T2 sequence (O95251 with tags, fused parts or gaps): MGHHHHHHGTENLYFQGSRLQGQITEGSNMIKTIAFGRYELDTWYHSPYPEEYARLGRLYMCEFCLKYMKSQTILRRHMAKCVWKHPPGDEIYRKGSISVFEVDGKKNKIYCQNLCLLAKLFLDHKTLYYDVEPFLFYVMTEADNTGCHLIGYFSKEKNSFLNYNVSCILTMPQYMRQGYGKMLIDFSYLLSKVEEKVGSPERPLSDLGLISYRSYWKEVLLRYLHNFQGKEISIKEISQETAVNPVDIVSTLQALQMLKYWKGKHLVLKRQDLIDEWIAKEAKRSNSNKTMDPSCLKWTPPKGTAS
T4 sequence (Q92794 507-778 A567V limits assumed): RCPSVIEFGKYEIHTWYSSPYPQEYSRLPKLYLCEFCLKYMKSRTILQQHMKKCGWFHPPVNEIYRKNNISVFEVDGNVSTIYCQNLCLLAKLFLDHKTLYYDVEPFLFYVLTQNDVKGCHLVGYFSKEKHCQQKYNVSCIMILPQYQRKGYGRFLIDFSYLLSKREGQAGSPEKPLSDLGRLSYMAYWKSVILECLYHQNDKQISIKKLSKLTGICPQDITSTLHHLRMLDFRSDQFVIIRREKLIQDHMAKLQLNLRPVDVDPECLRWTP
T5 sequence (Q8WYB5 whole entry): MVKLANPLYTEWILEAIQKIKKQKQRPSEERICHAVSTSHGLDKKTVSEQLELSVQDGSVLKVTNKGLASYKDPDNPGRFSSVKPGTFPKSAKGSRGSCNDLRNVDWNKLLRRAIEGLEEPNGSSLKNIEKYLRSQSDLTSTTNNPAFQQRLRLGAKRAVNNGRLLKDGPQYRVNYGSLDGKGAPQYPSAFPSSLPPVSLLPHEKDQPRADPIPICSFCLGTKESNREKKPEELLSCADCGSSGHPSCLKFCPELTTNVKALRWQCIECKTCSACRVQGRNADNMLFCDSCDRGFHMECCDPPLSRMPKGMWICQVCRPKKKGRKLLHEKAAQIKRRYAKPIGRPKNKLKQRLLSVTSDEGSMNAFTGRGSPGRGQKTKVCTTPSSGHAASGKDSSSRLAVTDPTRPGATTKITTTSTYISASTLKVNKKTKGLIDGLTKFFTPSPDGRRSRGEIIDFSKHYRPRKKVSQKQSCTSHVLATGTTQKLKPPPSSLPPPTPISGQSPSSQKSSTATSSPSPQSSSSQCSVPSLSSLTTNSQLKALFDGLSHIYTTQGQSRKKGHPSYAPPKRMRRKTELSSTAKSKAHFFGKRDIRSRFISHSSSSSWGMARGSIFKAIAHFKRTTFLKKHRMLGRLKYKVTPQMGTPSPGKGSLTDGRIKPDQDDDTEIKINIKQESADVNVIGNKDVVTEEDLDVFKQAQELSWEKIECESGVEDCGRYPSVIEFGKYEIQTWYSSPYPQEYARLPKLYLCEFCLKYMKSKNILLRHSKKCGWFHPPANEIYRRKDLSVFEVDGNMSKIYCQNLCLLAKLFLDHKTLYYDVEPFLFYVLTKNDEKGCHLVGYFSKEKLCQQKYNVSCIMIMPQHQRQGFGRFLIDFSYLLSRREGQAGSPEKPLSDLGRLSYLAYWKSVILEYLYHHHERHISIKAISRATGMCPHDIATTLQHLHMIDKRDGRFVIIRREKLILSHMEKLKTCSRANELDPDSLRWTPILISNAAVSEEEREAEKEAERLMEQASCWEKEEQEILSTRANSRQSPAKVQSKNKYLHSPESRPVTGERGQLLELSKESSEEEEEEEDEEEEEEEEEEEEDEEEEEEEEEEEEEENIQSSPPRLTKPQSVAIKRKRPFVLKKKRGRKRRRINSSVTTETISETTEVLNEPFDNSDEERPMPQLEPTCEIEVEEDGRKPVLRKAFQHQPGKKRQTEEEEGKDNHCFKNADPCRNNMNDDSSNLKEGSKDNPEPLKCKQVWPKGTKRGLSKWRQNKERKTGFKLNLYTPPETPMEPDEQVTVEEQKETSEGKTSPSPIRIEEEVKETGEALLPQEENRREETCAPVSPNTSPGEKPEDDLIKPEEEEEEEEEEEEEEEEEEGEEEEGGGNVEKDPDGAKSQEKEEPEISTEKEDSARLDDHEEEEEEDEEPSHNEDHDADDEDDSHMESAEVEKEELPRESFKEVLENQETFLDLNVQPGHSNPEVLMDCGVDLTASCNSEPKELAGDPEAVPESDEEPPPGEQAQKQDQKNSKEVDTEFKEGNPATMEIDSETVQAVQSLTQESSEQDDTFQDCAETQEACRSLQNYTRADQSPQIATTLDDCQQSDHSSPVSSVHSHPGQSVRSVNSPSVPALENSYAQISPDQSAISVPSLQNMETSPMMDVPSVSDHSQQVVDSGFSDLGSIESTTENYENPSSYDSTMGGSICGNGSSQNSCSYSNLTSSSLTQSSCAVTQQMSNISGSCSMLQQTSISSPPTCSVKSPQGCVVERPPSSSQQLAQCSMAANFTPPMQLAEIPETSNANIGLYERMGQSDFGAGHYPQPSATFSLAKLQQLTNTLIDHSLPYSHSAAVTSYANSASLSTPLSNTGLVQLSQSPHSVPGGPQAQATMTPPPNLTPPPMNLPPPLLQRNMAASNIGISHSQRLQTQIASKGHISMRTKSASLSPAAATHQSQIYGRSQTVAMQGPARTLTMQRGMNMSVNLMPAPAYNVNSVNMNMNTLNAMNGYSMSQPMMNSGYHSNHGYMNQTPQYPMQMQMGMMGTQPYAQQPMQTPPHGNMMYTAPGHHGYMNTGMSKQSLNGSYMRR
T1 sequence (Q92993 2-461 isoform Q92993-2): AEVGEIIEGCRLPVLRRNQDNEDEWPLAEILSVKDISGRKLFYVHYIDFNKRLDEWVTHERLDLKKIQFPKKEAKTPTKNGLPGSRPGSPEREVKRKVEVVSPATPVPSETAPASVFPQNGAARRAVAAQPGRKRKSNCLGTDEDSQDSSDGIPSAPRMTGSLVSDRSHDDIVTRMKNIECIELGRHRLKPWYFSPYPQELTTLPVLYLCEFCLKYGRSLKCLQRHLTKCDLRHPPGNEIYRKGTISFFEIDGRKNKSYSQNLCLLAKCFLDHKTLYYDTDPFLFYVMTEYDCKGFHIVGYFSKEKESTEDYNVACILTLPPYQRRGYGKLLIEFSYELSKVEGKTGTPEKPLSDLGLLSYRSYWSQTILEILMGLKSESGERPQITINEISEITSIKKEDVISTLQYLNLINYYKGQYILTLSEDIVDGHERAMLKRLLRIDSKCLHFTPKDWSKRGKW

Row | SMILES | IC50 (TIP60-KAT5 [1]) | IC50 (HBO-KAT7 [2]) | IC50 (MOF-KAT8 [3]) | IC50 (HBO-KAT7 [4]) | IC50 (MOZ-KAT6A) | IC50 (TIP60-KAT5 [5]) | IC50 (QKF-KAT6B) | IC50 [6] | IC50 [7] | IC50 (MOF-KAT8 [8]) | IC50 [9]
1 | COCc1ccccc1CCNC(=O)C1=Nc2ccc(I)cc2S(=O)(=O)N1 [Example 14, 7-Iodo-N-(2-(methoxymethyl)phenethyl)-2H-benzo[e][1,2,4]thiadiazine-3-carboxamide 1,1-dioxide] | 2360 nM | 1780 nM | 37800 nM | 83 nM | 10 nM | 156 nM | 58 nM | 1060 nM | – | – | –
2 | O=C(NCC(c1ccccc1)c1ncc[nH]1)C1=Nc2ccccc2S(=O)(=O)N1 (stereo not shown) [Example 113] | > 125000 nM | – | > 125000 nM | 6410 nM | 99000 nM | > 125000 nM | > 125000 nM | > 10000 nM | – | – | –
3 | COc1cc(C)cc(C(CNC(=O)C2=Nc3ccc(Cl)cc3S(=O)(=O)N2)c2ncco2)c1 (stereo not shown) [Example 159, 7-chloro-N-(2-(3-methoxy-5-methylphenyl)-2-(oxazol-2-yl)ethyl)-2H-benzo[e][1,2,4]thiadiazine-3-carboxamide 1,1-dioxide] | – | – | 16300 nM | 295 nM | 371 nM | 3200 nM | 4050 nM | 5090 nM | – | – | –
4 | O=C(NCC(F)(c1ccccc1)c1ncco1)C1=Nc2ccc(Cl)cc2S(=O)(=O)N1 (stereo not shown) [Example 175] | – | 162 nM | 30200 nM | 478 nM | 13 nM | 311 nM | – | 154 nM | 1840 nM | 29300 nM | 11900 nM
5 | COc1cccc(C(CNC(=O)C2=Nc3ccc(Cl)cc3S(=O)(=O)N2)c2ncco2)c1 (stereo not shown) [Example 176, 7-chloro-N-(2-(3-methoxyphenyl)-2-(oxazol-2-yl)ethyl)-2H-benzo[e][1,2,4]thiadiazine-3-carboxamide 1,1-dioxide] | – | 207 nM | 30200 nM | 869 nM | 76 nM | 5110 nM | – | – | 4430 nM | 92900 nM | 15400 nM
6 | O=C(NCC(F)(c1ccccc1)c1ncco1)C1=Nc2ccc(I)cc2S(=O)(=O)N1 (stereo not shown) [Example 177] | – | 64 nM | 8210 nM | 124 nM | 4 nM | 23 nM | – | 195 nM | 1030 nM | 6250 nM | 1180 nM
7 | O=C(NCC(c1ccccc1)c1n[nH]c(=O)o1)C1=Nc2ccc(I)cc2S(=O)(=O)N1 (stereo not shown) [Example 186] | – | – | – | 1960 nM | 24 nM | 734 nM | – | > 10000 nM | > 40000 nM | 71500 nM | > 40000 nM
8 | Cn1nc(-c2ccccc2CCNC(=O)C2=Nc3ccc(Cl)cc3S(=O)(=O)N2)oc1=O [Example 193] | – | – | – | 1940 nM | 493 nM | 4170 nM | – | 9080 nM | 31200 nM | – | > 40000 nM
9 | O=C(NCC1(c2ccccn2)CCCCC1)C1=Nc2ccc(Cl)cc2S(=O)(=O)N1 [Example 197] | – | – | – | 7530 nM | 290 nM | 23600 nM | 780 nM | 3040 nM | – | – | –
10 | O=C(NCC1(c2ccccn2)CCCC1)C1=Nc2ccc(Cl)cc2S(=O)(=O)N1 [Example 198] | – | – | – | 8370 nM | 351 nM | 42300 nM | 1380 nM | 5200 nM | – | – | –
11 | O=C(NCC(CO)C1CCCCC1)C1=Nc2ccc(Cl)cc2S(=O)(=O)N1 (stereo not shown) [Example 199] | – | – | – | 6570 nM | 838 nM | 15600 nM | 6170 nM | 10000 nM | – | – | –
12 | O=C(NCCC1CCCCC1)C1=Nc2ccc(Cl)cc2S(=O)(=O)N1 [Example 202] | – | – | – | > 125000 nM | 1040 nM | > 125000 nM | > 125000 nM | > 10000 nM | – | – | –
13 | O=C(NCC(c1cccc(O)c1)c1ncco1)C1=Nc2ccc(Cl)cc2S(=O)(=O)N1 (stereo not shown) [Example 216, 7-Chloro-N-(2-(3-hydroxyphenyl)-2-(oxazol-2-yl)ethyl)-2H-benzo[e][1,2,4]thiadiazine-3-carboxamide 1,1-dioxide] | – | 63 nM | 58600 nM | 152 nM | 28 nM | 506 nM | – | – | 14100 nM | 64300 nM | 15900 nM
14 | Cc1cc(O)cc(C(CNC(=O)C2=Nc3ccc(I)cc3S(=O)(=O)N2)c2ncco2)c1 (stereo not shown) [Example 222, N-(2-(3-Hydroxy-5-methylphenyl)-2-(oxazol-2-yl)ethyl)-7-iodo-2H-benzo[e][1,2,4]thiadiazine-3-carboxamide 1,1-dioxide] | – | – | – | 23 nM | 131 nM | 149 nM | – | 7150 nM | 437 nM | – | 1280 nM
